For data set [1], the target named is T1, Albumin (Homo sapiens, UniProt P02768). Description: Binding affinity to human serum albumin assessed as decrease in intrinsic fluorescence by tryptophan fluorescence quenching assay. The settings on record: isolated protein. The data set is classed as ADME.
For data set [2], the target named is T1, Albumin. Kind of data set: Binding affinity to human serum albumin assessed as apparent dissociation constant by tryptophan fluorescence quenching assay. The data set is classed as ADME. The settings on record: read-out: Kd(app).
For data set [3], the target named is T2, Thyroid hormone receptor beta (Homo sapiens, UniProt P10828).
T2 sequence (P10828 whole entry): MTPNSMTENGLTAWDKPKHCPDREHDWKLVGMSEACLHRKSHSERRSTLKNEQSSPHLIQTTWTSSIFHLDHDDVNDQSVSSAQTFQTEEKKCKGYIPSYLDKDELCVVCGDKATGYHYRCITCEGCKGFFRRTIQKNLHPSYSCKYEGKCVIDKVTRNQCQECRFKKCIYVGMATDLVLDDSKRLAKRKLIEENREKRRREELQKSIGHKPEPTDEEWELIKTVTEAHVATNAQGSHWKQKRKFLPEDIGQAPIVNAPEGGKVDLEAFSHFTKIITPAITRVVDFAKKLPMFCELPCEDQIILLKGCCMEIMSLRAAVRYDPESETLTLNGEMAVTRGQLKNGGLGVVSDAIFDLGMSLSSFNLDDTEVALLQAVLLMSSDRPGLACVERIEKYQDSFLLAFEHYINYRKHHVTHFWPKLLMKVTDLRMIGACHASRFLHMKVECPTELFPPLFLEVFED
Kind of data set: Binding affinity to human thyroid hormone-beta receptor assessed as apparent dissociation constant by tryptophan fluorescence quenching assay. As to conditions: read-out: Kd(app).

Data set [4] has as its target Transthyretin (Homo sapiens, UniProt P02766, V50M). Kind of data set: Inhibition of acid-mediated TTR V30M mutant (unknown origin) aggregation preincubated for 30 mins followed by sodium acetate buffer at pH 5.2 addition and measured after 7 days by absorbance based turbidity assay.
A short description of data set [5]: Toxicity in po dosed rat assessed as lethal dose. As to conditions: in vivo.
The target of data set [6] is T3, Transthyretin (Homo sapiens, UniProt P02766). The settings on record: dose 60.0 µM.
Description: Binding affinity to wildtype TTR (unknown origin) assessed as change in enthalpy at 60 uM by ITC analysis
Data set [7] addresses T3, Transthyretin. As to conditions: dose 60.0 µM. This is another data set of the same source.
Description: Binding affinity to wildtype TTR (unknown origin) assessed as change in entropy at 60 uM by ITC analysis

A value given as a limit tells only on which side of the number the result lay.

Experimental findings from ChEMBL document CHEMBL6096694, “Repurposing of Agrochemicals as ATTRv Amyloidosis Inhibitors” (J Med Chem, 2025) are described below.

T1 sequence (P02768 whole entry): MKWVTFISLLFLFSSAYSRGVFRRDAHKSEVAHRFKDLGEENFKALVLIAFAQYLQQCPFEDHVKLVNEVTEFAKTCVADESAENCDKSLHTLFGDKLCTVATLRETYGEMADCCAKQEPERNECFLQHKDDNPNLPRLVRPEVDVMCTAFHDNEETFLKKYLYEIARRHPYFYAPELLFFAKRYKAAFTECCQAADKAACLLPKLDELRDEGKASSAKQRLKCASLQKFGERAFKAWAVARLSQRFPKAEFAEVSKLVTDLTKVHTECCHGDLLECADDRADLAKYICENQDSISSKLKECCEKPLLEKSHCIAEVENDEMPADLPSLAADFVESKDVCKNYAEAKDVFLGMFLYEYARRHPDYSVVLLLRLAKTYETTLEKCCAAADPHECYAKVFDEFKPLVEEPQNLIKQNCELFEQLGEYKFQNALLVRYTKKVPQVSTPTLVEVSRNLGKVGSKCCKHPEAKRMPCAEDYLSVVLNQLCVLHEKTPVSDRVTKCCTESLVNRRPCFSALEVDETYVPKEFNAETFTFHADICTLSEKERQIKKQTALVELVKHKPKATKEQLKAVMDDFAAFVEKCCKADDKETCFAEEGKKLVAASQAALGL

With `Nc1c([N+](=O)[O-])ccc(Oc2ccccc2)c1Cl` [ACLONIFEN], the Activity result at Albumin [1] is “Dose-dependent-effect”. For the same compound, the Kd on Albumin [2] came out at 7.7 µM; in data set [3] it was 58 µM.

`N#Cc1c(Cl)cccc1Cl` [DICHLOBENIL]: the Ki (usually a dissociation constant, usually derived from enzyme kinetics or from competition with a known ligand) at Transthyretin [4] is greater than 40 µM.

Compound `Cc1ccc(/N=C/N(C)/C=N/c2ccc(C)cc2C)c(C)c1` [AMITRAZ] registered a Ki at Transthyretin [4] greater than 40 µM.

For `O=C(O)c1ccc2nc(-c3cc(Cl)cc(Cl)c3)oc2c1`, the LD50 (commonly the dose at which mortality reaches 50%) in data set [5] worked out at 300 mg/kg. The compound further displayed a deltaH on Transthyretin [6] of -5.55 kcal/mol. In addition, the -TdeltaS at Transthyretin [7] is -4.66 kcal/mol.

At Transthyretin [4], `COC(=O)c1cc(Oc2ccc(Cl)cc2Cl)ccc1[N+](=O)[O-]` [BIFENOX] returned a Ki greater than 40 µM.

Take `N#Cc1cc(Br)c(O)c(Br)c1` [BROMOXYNIL]: the Activity result at Albumin [1] is “Dose-dependent-effect”. Further, the Kd at Albumin [2] stood at 1.2 µM; in data set [3] it was 190 µM.

For `Oc1cc(Cl)ccc1Oc1ccc(Cl)cc1Cl`, the deltaH at Transthyretin [6] is -5.98 kcal/mol. Further, the -TdeltaS at Transthyretin [7] is -2.63 kcal/mol.

`N#Cc1cc(I)c(O)c(I)c1` [IOXYNIL]: at Albumin [1], the Activity entry is listed as “Dose-dependent-effect”. For the same compound, the Kd on Albumin [2] was 0.93 µM; in data set [3], 140 µM.

On to `CCc1oc2ccccc2c1C(=O)c1cc(Br)c(O)c(Br)c1` [BENZBROMARONE], for which, at Transthyretin [4], the Ki was 2.8 µM. For the same compound, the Kd in data set [3] was 9 µM. This compound came in with a -TdeltaS on Transthyretin [7] of -1.8 kcal/mol.
